Test results reported in ChEMBL document CHEMBL4630908 (2021).
The source made the active and inactive calls. No cut-off for these calls is given here.

What was measured:
[1] = target: T1, Bromodomain-containing protein 2 (Homo sapiens, UniProt P25440); experiment: BET mutant TR-FRET assay (BRD2 BD2)
[2] = target: E3 ubiquitin-protein ligase TRIM33 (Homo sapiens, UniProt Q9UPN9); experiment: TRIM33(PHD,Bromo.) DiscoverX BROMOscan
[3] = target: T2, Bromodomain-containing protein 3 (Homo sapiens, UniProt Q15059); experiment: BRD3(1) DiscoverX BROMOscan
Target sequence in this assay (Q15059 whole entry): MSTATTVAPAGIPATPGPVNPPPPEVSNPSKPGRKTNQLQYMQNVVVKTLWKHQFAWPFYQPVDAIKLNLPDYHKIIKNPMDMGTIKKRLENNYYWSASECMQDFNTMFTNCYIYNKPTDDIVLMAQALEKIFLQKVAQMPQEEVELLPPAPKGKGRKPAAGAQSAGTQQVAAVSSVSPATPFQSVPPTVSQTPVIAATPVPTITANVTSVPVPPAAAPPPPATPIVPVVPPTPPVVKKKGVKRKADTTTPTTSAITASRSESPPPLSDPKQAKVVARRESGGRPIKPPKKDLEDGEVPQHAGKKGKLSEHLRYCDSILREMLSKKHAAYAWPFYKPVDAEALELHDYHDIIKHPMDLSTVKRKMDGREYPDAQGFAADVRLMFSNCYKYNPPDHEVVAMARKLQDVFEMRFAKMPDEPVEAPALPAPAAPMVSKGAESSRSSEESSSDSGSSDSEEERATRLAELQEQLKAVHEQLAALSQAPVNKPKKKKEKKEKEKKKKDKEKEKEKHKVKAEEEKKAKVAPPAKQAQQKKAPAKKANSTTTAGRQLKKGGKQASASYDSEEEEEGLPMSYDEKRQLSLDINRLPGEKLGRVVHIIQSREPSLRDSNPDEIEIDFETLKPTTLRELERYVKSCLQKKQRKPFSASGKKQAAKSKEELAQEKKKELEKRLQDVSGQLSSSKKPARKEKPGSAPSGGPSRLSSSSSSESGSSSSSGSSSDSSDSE

[4] = target: 5-hydroxytryptamine receptor 3A (Homo sapiens) (UniProt P46098); conditions: Compound concentration 10.0 uM
[5] = target: ATPase family AAA domain-containing protein 2 (Homo sapiens, UniProt Q6PL18); experiment: ATAD2A DiscoverX BROMOscan
[6] = target: Transcription initiation factor TFIID subunit 1 (Homo sapiens, UniProt P21675); experiment: TAF1(2) DiscoverX BROMOscan
[7] = target: Beta-3 adrenergic receptor (Homo sapiens) (UniProt P13945); conditions: Compound concentration 10.0 uM
[8] = target: Muscarinic acetylcholine receptor M2 (Homo sapiens) (UniProt P08172); conditions: Compound concentration 10.0 uM
[9] = target: T2, Bromodomain-containing protein 3; experiment: BET mutant TR-FRET assay (BRD3 BD2)
Target sequence in this assay (Q15059 2-726 limits assumed, change not shown): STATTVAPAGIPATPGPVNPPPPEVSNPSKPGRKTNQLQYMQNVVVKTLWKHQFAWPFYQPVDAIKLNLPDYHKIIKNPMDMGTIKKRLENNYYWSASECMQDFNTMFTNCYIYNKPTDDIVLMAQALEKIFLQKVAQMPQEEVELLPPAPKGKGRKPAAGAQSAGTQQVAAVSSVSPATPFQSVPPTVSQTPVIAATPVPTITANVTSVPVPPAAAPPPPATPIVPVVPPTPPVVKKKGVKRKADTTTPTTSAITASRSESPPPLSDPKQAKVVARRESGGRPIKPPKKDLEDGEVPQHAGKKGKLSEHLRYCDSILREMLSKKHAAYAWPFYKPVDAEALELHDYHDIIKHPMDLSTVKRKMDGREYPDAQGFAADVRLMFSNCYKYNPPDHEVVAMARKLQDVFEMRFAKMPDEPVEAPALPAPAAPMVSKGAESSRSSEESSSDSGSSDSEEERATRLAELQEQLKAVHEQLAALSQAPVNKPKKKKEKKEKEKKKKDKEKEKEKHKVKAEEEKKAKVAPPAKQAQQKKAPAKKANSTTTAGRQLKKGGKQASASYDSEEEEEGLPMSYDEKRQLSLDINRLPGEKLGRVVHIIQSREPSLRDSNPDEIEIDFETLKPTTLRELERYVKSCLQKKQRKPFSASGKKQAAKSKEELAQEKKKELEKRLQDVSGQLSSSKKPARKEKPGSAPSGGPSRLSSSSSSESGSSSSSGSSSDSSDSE

[10] = target: T2, Bromodomain-containing protein 3; experiment: TR-FRET assay (BRD3 BD2)
Target sequence in this assay (Q15059 whole entry): as the sequence (Q15059 whole entry) above

[11] = target: D(3) dopamine receptor (Homo sapiens) (UniProt P35462); conditions: Compound concentration 10.0 uM
[12] = target: T1, Bromodomain-containing protein 2; experiment: BRD2 BD2 Bromoscan (DiscoverX)
Target sequence in this assay (P25440 whole entry): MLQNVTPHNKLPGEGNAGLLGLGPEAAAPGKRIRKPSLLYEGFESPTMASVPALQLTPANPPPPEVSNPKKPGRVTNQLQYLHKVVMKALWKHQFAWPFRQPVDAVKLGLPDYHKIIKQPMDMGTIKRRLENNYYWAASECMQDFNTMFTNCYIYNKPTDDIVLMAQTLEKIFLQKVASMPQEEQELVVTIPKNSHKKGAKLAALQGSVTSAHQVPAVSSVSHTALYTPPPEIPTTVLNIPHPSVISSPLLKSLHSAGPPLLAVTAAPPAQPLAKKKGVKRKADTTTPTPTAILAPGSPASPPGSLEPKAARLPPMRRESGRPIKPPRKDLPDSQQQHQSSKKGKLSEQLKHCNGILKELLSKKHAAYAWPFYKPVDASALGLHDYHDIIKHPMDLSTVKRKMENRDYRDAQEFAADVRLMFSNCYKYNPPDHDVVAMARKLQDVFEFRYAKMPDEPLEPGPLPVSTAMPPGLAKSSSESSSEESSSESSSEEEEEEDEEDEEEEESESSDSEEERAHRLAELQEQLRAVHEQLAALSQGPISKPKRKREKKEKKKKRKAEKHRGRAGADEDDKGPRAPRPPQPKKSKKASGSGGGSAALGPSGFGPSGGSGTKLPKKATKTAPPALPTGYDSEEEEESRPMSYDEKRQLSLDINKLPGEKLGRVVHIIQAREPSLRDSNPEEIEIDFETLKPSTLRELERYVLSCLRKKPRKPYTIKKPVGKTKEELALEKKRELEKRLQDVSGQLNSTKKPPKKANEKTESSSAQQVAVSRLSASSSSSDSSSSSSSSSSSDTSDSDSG

[13] = target: T2, Bromodomain-containing protein 3; experiment: BET mutant TR-FRETassay (BRD3 BD1)
Target sequence in this assay (Q15059 2-726 limits assumed, change not shown): as the sequence (Q15059 2-726 limits assumed, change not shown) above

[14] = target: D(2) dopamine receptor (Homo sapiens, UniProt P14416); conditions: Compound concentration 10.0 uM
[15] = target: Mu-type opioid receptor (Homo sapiens, UniProt P35372); conditions: Compound concentration 10.0 uM
[16] = target: 5-hydroxytryptamine receptor 7 (Homo sapiens) (UniProt P34969); conditions: Compound concentration 10.0 uM
[17] = target: Alpha-1B adrenergic receptor (Homo sapiens) (UniProt P35368); conditions: Compound concentration 10.0 uM
[18] = target: T1, Bromodomain-containing protein 2; experiment: BRD2 BD1 Bromoscan (DiscoverX)
Target sequence in this assay (P25440 whole entry): as the sequence (P25440 whole entry) above

[19] = target: Bromodomain adjacent to zinc finger domain protein 2A (Homo sapiens, UniProt Q9UIF9); experiment: BAZ2A DiscoverX BROMOscan
[20] = target: Nucleosome-remodeling factor subunit BPTF (Homo sapiens, UniProt Q12830); experiment: FALZ DiscoverX BROMOscan
[21] = target: 5-hydroxytryptamine receptor 1D (Homo sapiens, UniProt P28221); conditions: Compound concentration 10.0 uM
[22] = target: Alpha-2C adrenergic receptor (Homo sapiens) (UniProt P18825); conditions: Compound concentration 10.0 uM
[23] = target: GABA-A receptor; anion channel; experiment: (§1) Cross screening panel; format: protein-complex assay
[24] = target: Voltage-gated potassium channel, IKs; KCNQ1(Kv7.1)/KCNE1(MinK) (Homo sapiens, UniProt P15382+P51787); experiment: as §1; format: protein-complex assay
[25] = target: Histamine H2 receptor (Homo sapiens) (UniProt P25021); conditions: Compound concentration 10.0 uM
[26] = target: 5-hydroxytryptamine receptor 2B (Homo sapiens) (UniProt P41595); conditions: Compound concentration 10.0 uM
[27] = target: T3, Bromodomain testis-specific protein (Homo sapiens, UniProt Q58F21); experiment: BRDT BD1 Bromoscan (DiscoverX)
[28] = target: T3, Bromodomain testis-specific protein; experiment: BRDT BD2 Bromoscan (DiscoverX)
[29] = target: Bromodomain-containing protein 8 (Homo sapiens, UniProt Q9H0E9); experiment: BRD8(1) DiscoverX BROMOscan
[30] = target: Peregrin (Homo sapiens, UniProt P55201); experiment: BRPF1 DiscoverX BROMOscan
[31] = target: Alpha-1D adrenergic receptor (Homo sapiens) (UniProt P25100); conditions: Compound concentration 10.0 uM
[32] = target: Histone acetyltransferase p300 (Homo sapiens, UniProt Q09472); experiment: EP300 DiscoverX BROMOscan
[33] = target: T2, Bromodomain-containing protein 3; experiment: BRD3 BD1 Bromoscan (DiscoverX)
Target sequence in this assay (Q15059 whole entry): as the sequence (Q15059 whole entry) above

[34] = target: T3, Bromodomain testis-specific protein; experiment: TR-FRET assay (BRDT BD1)
[35] = target: Bromodomain-containing protein 7 (Homo sapiens, UniProt Q9NPI1); experiment: BRD7 DiscoverX BROMOscan
[36] = target: T2, Bromodomain-containing protein 3; experiment: BRD3(2) DiscoverX BROMOscan
Target sequence in this assay (Q15059 whole entry): as above

[37] = target: T3, Bromodomain testis-specific protein; experiment: BET mutant TR-FRET assay (BRDT BD2)
[38] = target: Transcription intermediary factor 1-alpha (Homo sapiens, UniProt O15164); experiment: TRIM24(PHD,Bromo.) DiscoverX BROMOscan
[39] = target: T2, Bromodomain-containing protein 3; experiment: TR-FRET assay (BRD3 BD1)
Target sequence in this assay (Q15059 whole entry): as above

[40] = target: Histone acetyltransferase KAT2A (Homo sapiens, UniProt Q92830); experiment: GCN5L2 DiscoverX BROMOscan
[41] = target: 5-hydroxytryptamine receptor 6 (Homo sapiens) (UniProt P50406); conditions: Compound concentration 10.0 uM
[42] = target: Bromodomain-containing protein 9 (Homo sapiens, UniProt Q9H8M2); experiment: BRD9 DiscoverX BROMOscan
[43] = target: Beta-2 adrenergic receptor (Homo sapiens, UniProt P07550); conditions: Compound concentration 10.0 uM
[44] = species: Rattus norvegicus; conditions: Compound concentration 10.0 uM
[45] = target: GABA-A receptor; anion channel (Rattus norvegicus) (UniProt O09028+P15431+P18506+P18508+P19969+P20236+P23574+P23576+P28471+P28473+P30191+P62813+P63079+P63138+Q91ZM7+Q9ES14); conditions: Compound concentration 10.0 uM
[46] = target: GABA-A receptor; anion channel; experiment: as §1; format: protein-complex assay; remark: listed apart in the source
[47] = target: T1, Bromodomain-containing protein 2; experiment: TR-FRET assay (BRD2 BD1)
Target sequence in this assay (P25440 whole entry): as the sequence (P25440 whole entry) above

[48] = target: CREB-binding protein (Homo sapiens, UniProt Q92793); experiment: CREBBP DiscoverX BROMOscan
[49] = target: Muscarinic acetylcholine receptor M1 (Homo sapiens) (UniProt P11229); conditions: Compound concentration 10.0 uM
[50] = target: Protein polybromo-1 (Homo sapiens, UniProt Q86U86); experiment: PBRM1(2) DiscoverX BROMOscan
[51] = target: Sigma non-opioid intracellular receptor 1 (Homo sapiens) (UniProt Q99720); conditions: Compound concentration 10.0 uM
[52] = target: T3, Bromodomain testis-specific protein; experiment: TR-FRET assay (BRDT BD2)
[53] = target: T1, Bromodomain-containing protein 2; experiment: TR-FRET assay (BRD2 BD2)
Target sequence in this assay (P25440 whole entry): as above

[54] = target: 5-hydroxytryptamine receptor 5A (Homo sapiens) (UniProt P47898); conditions: Compound concentration 10.0 uM
[55] = target: T1, Bromodomain-containing protein 2; experiment: BRD2(1,2) DiscoverX BROMOscan
Target sequence in this assay (P25440 whole entry): as above

Sequence of Beta-2 adrenergic receptor (P07550 whole entry, looked up): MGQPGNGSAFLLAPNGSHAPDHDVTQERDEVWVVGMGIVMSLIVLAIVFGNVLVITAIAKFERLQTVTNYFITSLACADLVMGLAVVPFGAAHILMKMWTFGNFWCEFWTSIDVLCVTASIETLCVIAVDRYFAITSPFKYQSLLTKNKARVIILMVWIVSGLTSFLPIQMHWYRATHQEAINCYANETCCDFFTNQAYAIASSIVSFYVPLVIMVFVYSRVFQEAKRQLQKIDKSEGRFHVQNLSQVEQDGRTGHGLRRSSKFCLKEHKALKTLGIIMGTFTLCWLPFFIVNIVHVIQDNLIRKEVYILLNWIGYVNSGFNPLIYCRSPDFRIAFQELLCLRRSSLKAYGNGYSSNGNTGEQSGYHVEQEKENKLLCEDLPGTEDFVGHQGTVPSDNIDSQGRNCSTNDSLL
Sequence of Sigma non-opioid intracellular receptor 1 (Homo sapiens) (Q99720 whole entry): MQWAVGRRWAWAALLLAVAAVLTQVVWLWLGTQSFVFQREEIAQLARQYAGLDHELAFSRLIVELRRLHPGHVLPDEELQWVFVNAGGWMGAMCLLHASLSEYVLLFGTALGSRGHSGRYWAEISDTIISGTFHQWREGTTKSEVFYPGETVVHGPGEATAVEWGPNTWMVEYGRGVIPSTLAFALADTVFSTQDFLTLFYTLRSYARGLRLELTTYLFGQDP
Sequence of 5-hydroxytryptamine receptor 3A (Homo sapiens) (P46098 whole entry, the tested form may be a part): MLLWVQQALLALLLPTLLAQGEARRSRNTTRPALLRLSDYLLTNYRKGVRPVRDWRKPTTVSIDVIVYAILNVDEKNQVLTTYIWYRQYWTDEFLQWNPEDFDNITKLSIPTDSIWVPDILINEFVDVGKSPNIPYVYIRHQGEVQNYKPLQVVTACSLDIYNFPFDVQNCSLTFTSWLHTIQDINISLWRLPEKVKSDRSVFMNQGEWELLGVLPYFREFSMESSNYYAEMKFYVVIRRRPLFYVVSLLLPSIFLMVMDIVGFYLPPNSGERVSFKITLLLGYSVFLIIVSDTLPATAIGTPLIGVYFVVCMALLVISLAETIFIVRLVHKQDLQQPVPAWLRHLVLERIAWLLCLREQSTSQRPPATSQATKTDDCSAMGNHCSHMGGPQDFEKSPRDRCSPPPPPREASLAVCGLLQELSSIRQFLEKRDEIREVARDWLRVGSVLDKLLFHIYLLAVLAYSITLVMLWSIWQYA
Sequence of E3 ubiquitin-protein ligase TRIM33 (Q9UPN9 whole entry): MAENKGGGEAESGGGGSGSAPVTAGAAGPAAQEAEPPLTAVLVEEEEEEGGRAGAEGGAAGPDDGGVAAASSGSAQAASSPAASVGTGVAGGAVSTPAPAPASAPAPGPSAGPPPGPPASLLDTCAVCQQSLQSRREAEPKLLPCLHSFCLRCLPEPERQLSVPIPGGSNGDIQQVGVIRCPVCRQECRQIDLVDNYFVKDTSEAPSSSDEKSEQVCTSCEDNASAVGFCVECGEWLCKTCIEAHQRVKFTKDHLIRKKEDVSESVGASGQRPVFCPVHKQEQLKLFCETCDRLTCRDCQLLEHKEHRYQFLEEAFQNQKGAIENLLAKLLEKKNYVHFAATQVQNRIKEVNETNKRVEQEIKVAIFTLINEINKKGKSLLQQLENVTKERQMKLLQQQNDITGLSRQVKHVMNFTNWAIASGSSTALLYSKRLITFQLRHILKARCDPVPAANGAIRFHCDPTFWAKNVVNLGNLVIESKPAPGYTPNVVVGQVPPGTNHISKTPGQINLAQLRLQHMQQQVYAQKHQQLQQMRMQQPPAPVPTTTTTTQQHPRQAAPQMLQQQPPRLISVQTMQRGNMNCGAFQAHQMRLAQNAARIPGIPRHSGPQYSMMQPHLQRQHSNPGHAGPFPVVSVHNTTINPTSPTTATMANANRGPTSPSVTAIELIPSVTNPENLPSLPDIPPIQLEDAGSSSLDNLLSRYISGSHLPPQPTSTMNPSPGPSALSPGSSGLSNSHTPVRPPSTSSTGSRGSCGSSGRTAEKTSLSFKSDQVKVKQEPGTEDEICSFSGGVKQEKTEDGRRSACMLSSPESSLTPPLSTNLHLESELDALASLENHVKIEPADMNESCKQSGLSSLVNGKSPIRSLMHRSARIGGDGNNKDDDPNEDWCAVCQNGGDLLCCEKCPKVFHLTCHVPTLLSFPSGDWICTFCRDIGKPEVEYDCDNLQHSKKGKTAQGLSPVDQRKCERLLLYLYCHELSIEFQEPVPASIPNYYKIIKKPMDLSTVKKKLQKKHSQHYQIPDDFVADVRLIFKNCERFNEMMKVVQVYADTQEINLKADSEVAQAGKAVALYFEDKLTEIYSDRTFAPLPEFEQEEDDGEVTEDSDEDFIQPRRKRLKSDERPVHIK

Compound `CC(=O)Nc1c(F)cc(C(=O)N[C@H]2CC[C@H](O)CC2)cc1O[C@@H](C)c1ccccc1` [GSK046] has a pIC50 [1] of 6.6, a Kd [2] of 30 µM and a Kd [3] of 2.08 µM. For the same compound, the inhibition [4] was 3.77%, the Kd [5] was 30 µM and the Kd [6] was 30 µM. It also gave an inhibition [7] of 17.5%, an inhibition [8] of 18.1% and a pIC50 [9] of 7. The IC50 [10] was 0.098 µM (active), the inhibition [11] was 39.1% and the Kd [12] was 0.035 µM (active). It also gave a pIC50 [13] of 4.4, an inhibition [14] of 25.8% and an inhibition [15] of 20.4%. For the same compound, the inhibition [16] was 17.6%, the inhibition [17] was -0.75% and the Kd [18] was 1.62 µM (not active). The Kd [19] was 30 µM, the Kd [20] was 30 µM and the inhibition [21] was 84.2%. The inhibition [22] was -0.86%, the pEC50 [23] was less than 4 and the pIC50 [23] was less than 4. It also gave an IC50 [24] greater than 25.1 µM, an inhibition [25] of -7.57% and an inhibition [26] of -6.98%. For the same compound, the Kd [27] was 2.45 µM (not active), the Kd [28] was 0.015 µM (active) and the Kd [29] was 30 µM. It also gave a Kd [30] of 30 µM, an inhibition [31] of -6.01% and a Kd [32] of 30 µM. For the same compound, the Kd [33] was 2.08 µM (not active), the IC50 [34] was > 50.1 µM (not active) and the Kd [35] was 30 µM. It also gave a Kd [36] of 0.033 µM, a pIC50 [37] of 6.7 and a Kd [38] of 30 µM. The IC50 [39] was 36.3 µM (not active), the Kd [40] was 30 µM and the inhibition [41] was 11.4%. For the same compound, the Kd [42] was 30 µM, the inhibition [43] was 28.1% and the inhibition [44] was 5.68%. The inhibition [45] was 15.3%, the pEC50 [46] was less than 4 and the IC50 [47] was 11 µM (not active). For the same compound, the Kd [48] was 30 µM, the inhibition [49] was -4.64% and the Kd [50] was 30 µM. For the same compound, the inhibition [51] was 6.84%, the IC50 [52] was 0.214 µM (active) and the IC50 [53] was 0.264 µM (active). For the same compound, the inhibition [54] was -8.96% and the Kd [55] was 0.1 µM.
